pEC50: −log10 of the molar value.
Tested on: YAP/TAZ-TEAD transcription
Assay: Reporter gene assay for measuring the inhibition of YAP/TAZ-TEAD transcription
Format: cell-based
Settings: Homo sapiens, HEK-293T; Hek293T cells transiently transfected with TEAD-responsive element luciferase reporter; 24 hours incubation
Protocol: Hek293T cells are cultured in DMEM supplemented with 10% fetal bovine serum, Sodium pyruvate, Sodium bicarbonate, L-glutamine. The cells are harvested and transiently transfected with TEAD-responsive element luciferase reporter. Transfected cells are plated in 384-wells plate containing pre-diluted compounds. After 24 hours incubation at 37° C./5% CO2, assay plates were cooled down to RT and levelled to an equal volume per well, prior to the addition of 25 uL luciferase substrate SteadyLite (Perkin Elmer)/well. The plate was shaken for 10 min at 600 rpm, centrifuged for 1 min at 500 rpm and measured with an Envision reader (PerkinElmer). The amount of relative light units produced by the TEAD reporter is used to calculated percent of inhibition.
The percent of reporter inhibition was calculated in the presence of a positive control inhibitor (100% inhibition) versus a condition with the presence of the vehicle basal activity of the reporter (0% inhibition). The ability of a test compound to inhibit this activity was determined as: Percentage inhibition=[1−((RLU determined in the presence of vehicle−RLU determined for sample with test compound present) divided by (RLU determined in the presence of vehicle−RLU determined for sample with positive control inhibitor))]*100 The activities of example compounds tested are depicted in Table 8. The activity ranges A, B and C refer to IC50 values in the reporter gene assay as follows: “A”: EC50<1 μM; “B”: 1 μM≤EC50≤3.0 μM and “C”: EC50>3.0 μM, NT=not tested.

| SMILES | pEC50 |
| --- | --- |
| Cn1ccc(-c2nc(-c3ccccc3)nc3c2CC(N)CC3)n1 (stereo not drawn) [Cpd. No. 1, 4-(1-methyl-1H-pyrazol-3-yl)-2-phenyl-5,6,7,8-tetrahydroquinazolin-6-amine] | < 5.52 |
| Cn1ccc(-c2nc(-c3ccccc3)nc3c2CCC(N)C3)n1 (stereo not drawn) [Cpd. No. 5, 4-(1-methyl-1H-pyrazol-3-yl)-2-phenyl-5,6,7,8-tetrahydroquinazolin-7-amine] | < 5.52 |
| CCC(=O)NC1CCc2c(nc(-c3ccccc3)nc2-c2ccn(C)n2)C1 (stereo not drawn) [Cpd. No. 7, N-(4-(1-methyl-1H-pyrazol-3-yl)-2-phenyl-5,6,7,8-tetrahydroquinazolin-7-yl)propionamide] | < 5.52 |
| Cn1ccc(-c2nc(-c3ccccc3)nc3c2CCC(NS(C)(=O)=O)C3)n1 (stereo not drawn) [Cpd. No. 8, N-(4-(1-methyl-1H-pyrazol-3-yl)-2-phenyl-5,6,7,8-tetrahydroquinazolin-7-yl)methanesulfonamide] | < 5.52 |
| C=CC(=O)NC1CCc2nc(-c3ccccc3)nc(-c3ccn(Cc4cccnc4)n3)c2C1 (stereo not drawn) [Cpd. No. 9, N-(2-phenyl-4-(1-(pyridin-3-ylmethyl)-1H-pyrazol-3-yl)-5,6,7,8-tetrahydroquinazolin-6-yl)acrylamide] | < 5.52 |
| CCC(=O)NC1CCc2nc(-c3ccccc3)nc(-c3ccn(Cc4cccnc4)n3)c2C1 (stereo not drawn) [Cpd. No. 10, N-(2-phenyl-4-(1-(pyridin-3-ylmethyl)-1H-pyrazol-3-yl)-5,6,7,8-tetrahydroquinazolin-6-yl)propionamide] | < 5.52 |
| C=CC(=O)NC1CCc2c(nc(-c3ccccc3)nc2-c2ccn(Cc3cccnc3)n2)C1 (stereo not drawn) [Cpd. No. 11, N-(2-phenyl-4-(1-(pyridin-3-ylmethyl)-1H-pyrazol-3-yl)-5,6,7,8-tetrahydroquinazolin-7-yl)acrylamide] | 5.52 to 6.00 |
| CS(=O)(=O)NC1CCc2c(nc(-c3ccccc3)nc2-c2ccn(Cc3cccnc3)n2)C1 (stereo not drawn) [Cpd. No. 13, N-(2-phenyl-4-(1-(pyridin-3-ylmethyl)-1H-pyrazol-3-yl)-5,6,7,8-tetrahydroquinazolin-7-yl)methanesulfonamide] | < 5.52 |
| CCC(=O)N1Cc2nc(-c3ccccc3)nc(-c3ccn(C)n3)c2C1 [Cpd. No. 15, 1-(4-(1-methyl-1H-pyrazol-3-yl)-2-phenyl-5,7-dihydro-6H-pyrrolo[3,4-d]pyrimidin-6-yl)propan-1-one] | < 5.52 |

Further lines, results first:

| pEC50 | SMILES |
| --- | --- |
| < 5.52 | C=CC(=O)NC1CCc2nc(-c3ccccc3)nc(-c3ccn(C)n3)c2C1 (stereo not drawn) [Cpd. No. 2, N-(4-(1-methyl-1H-pyrazol-3-yl)-2-phenyl-5,6,7,8-tetrahydroquinazolin-6-yl)acrylamide] |
| < 5.52 | CCC(=O)NC1CCc2nc(-c3ccccc3)nc(-c3ccn(C)n3)c2C1 (stereo not drawn) [Cpd. No. 3, N-(4-(1-methyl-1H-pyrazol-3-yl)-2-phenyl-5,6,7,8-tetrahydroquinazolin-6-yl)propionamide] |
| < 5.52 | Cn1ccc(-c2nc(-c3ccccc3)nc3c2CC(NS(C)(=O)=O)CC3)n1 (stereo not drawn) [Cpd. No. 4, N-(4-(1-methyl-1H-pyrazol-3-yl)-2-phenyl-5,6,7,8-tetrahydroquinazolin-6-yl)methanesulfonamide] |
| < 5.52 | C=CC(=O)NC1CCc2c(nc(-c3ccccc3)nc2-c2ccn(C)n2)C1 (stereo not drawn) [Cpd. No. 6, N-(4-(1-methyl-1H-pyrazol-3-yl)-2-phenyl-5,6,7,8-tetrahydroquinazolin-7-yl)acrylamide] |
| < 5.52 | CCC(=O)NC1CCc2c(nc(-c3ccccc3)nc2-c2ccn(Cc3cccnc3)n2)C1 (stereo not drawn) [Cpd. No. 12, N-(2-phenyl-4-(1-(pyridin-3-ylmethyl)-1H-pyrazol-3-yl)-5,6,7,8-tetrahydroquinazolin-7-yl)propionamide] |
| > 6.00 | C=CC(=O)N1Cc2nc(-c3ccccc3)nc(-c3ccn(C)n3)c2C1 [Cpd. No. 14, 1-(4-(1-methyl-1H-pyrazol-3-yl)-2-phenyl-5,7-dihydro-6H-pyrrolo[3,4-d]pyrimidin-6-yl)prop-2-en-1-one] |

Source: patent publication US12516064B2, “Tetrahydropyridopyrimidines and related analogs for inhibiting YAP/TAZ-TEAD” (THE KATHOLIEKE UNIVERSITEIT LEUVEN, priority 2022, dated 2026)
